Experimental data taken from patent publication US11591288B2, “Compositions and methods for treating atherosclerotic cardiovascular disease” (GAVISH-GALILEE BIO APPLICATIONS LTD., priority 2017, dated 2023).

Legend:
[1] = tested on: Human umbilical vein endothelial cells (HUVECs); assay: HDL-induced endothelial NO release, DAN assay; assay type: cell-based; details: HDL 50 μg/ml preincubated 3 h with 10, 20, 50 μg/ml; HUVECs 2 h
Description: HUVECs were stimulated for 2 h with HDL (50 μg/ml) preincubated with DMSO, lyso-DGTS and S1P at final concentrations of 10, 20, and 50 μg/ml for 3 h. Media were then collected and treated with nitrate reductase followed by analysis using the DAN assay. Data are expressed as NO concentration (μM) released by the cells. Each experiment was repeated separately at least three times. *p<0.05, ***p<0.0001 related to the control (HDL without lyso-DGTS or S1P). Statistics were analyzed using one-way annova Graphpad prism 5 software.
Human umbilical vein endothelial cells (HUVECs) were incubated for 2 hours with HDL preincubated with different concentration of lyso-DGTS or S1P for 3 hours, and NO production determined using 2,3-diaminonapthalene (DAN) assay.

[2] = tested on: J774A.1 macrophages; details: as previously shown; cited from earlier work
[3] = tested on: rePON1; details: 25° C.; Cohen et al., 2014; cited from earlier work
[4] = biological target: PON1 (Homo sapiens, UniProt P27169); details: Cohen et al., 2014; cited from earlier work
Chain of PON1 (P27169 whole entry, species assumed): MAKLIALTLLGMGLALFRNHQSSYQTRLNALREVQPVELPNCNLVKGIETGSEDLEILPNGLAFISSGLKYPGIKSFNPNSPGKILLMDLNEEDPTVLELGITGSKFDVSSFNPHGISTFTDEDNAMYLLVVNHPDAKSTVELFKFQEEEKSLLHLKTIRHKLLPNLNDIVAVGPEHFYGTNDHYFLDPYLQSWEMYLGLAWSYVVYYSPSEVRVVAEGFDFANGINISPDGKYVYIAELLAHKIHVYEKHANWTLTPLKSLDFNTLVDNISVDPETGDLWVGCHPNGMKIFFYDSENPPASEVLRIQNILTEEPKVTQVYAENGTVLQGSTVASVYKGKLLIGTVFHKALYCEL

| Molecule | effect on HDL ability to induce endothelial NO release [1] | effect on PON1 uptake by macrophage cells [2] | Binding constant Ka to PON1 [3] [M⁻¹] | decrease of the ratio between HDL-PON1 and free-PON1 [4] [%] |
| --- | --- | --- | --- | --- |
| CCCCCCCCCCCCC/C=C/[C@@H](O)[C@@H](N)COP(=O)(O)O [S1P, Sphingosine 1-Phosphate, reference compound] | significantly increased the HDL ability to induce endothelial NO release at a dose dependent manner | – | – | – |
| PC 16:0 18:2 | – | enhance PON1 uptake by macrophage cells | 1680 | 50 |
